Numbered stars: 1 amine (or outer) side, 2 acyl side, 3 side chain; on linkers, the order of the positions; unused ones are H or OH. Bridge positions count the residues as written; N and C are the ends. Square brackets hold non-standard residues; d marks the D form. Peptide text beside a SMILES is read from it. * marks the point of attachment. Orn(4R-OH,5R-OH) = O=C([C@H](C[C@@H](O)[C@@H](O)N[*:3])N[*:1])[*:2]; hTyr(3S-OH,4S-OH) = N[C@H](C(=O)O)[C@H](O)[C@@H](O)c1ccc(O)cc1; Pro(3S-OH,4S-Me) = C[C@H]1CN[C@H](C(=O)O)[C@H]1O; Gln(3R-OH) = NC(=O)C[C@@H](O)[C@H](N)C(=O)O; Hyp = O=C(O)[C@@H]1C[C@@H](O)CN1; X1 = CCC(C)CC(C)CCCCCCCCC(=O)*
What was measured:
filamentous fungi = assay: disc diffusion antifungal assay, filamentous fungi; type: cell-based; conditions: disc diffusion against the listed filamentous fungi; 28°C or 37°C, 24 hours
Procedure: (§1) This may be seen in an antifungal assay employing a disc diffusion method against yeasts and filamentous fungi (molds).
(§2) In the disc diffusion method, seeded assay plates are first prepared in one of the following manners according to the type of organism.
Inocula for filamentous fungi are prepared by scraping the surface of stock plates maintained on potato dextrose agar with a moistened sterile dacron swab. The spores and mycelia are then suspended in 10 milliliters of sterile potato dextrose broth and adjusted to 70 percent transmission at 660 nm.
(§3) For three strains of Candida albicans and one strain of Saccharomyces cerevisiae, sterile saline is employed in place of potato dextrose broth. Assay plates are prepared by dilution the inoculum into appropriate molten agar medium, cooled to 45°C to obtain a final concentration of 4 percent (volume/volume).
(§4) The seeded agar media thus prepared are dispensed into petri dishes for assays (11 milliliters per dish).
(§5) The samples to be tested for production of antifungal agent are applied to 6.2 mm. filter paper discs (25 microliter/disc) and air dried at 24°C. When the sample to be tested is a crude broth, it may be centrifuged prior to application. […] Following incubation, the inhibition zones are measured and recorded. […]

Candida albicans [1] = assay: agar dilution assay (MIC), expanded panel of strains; type: cell-based; conditions: against 5 of 34 different strains of Candida albicans, 28°C, 48 hours
Procedure: The activity may be seen in an agar dilution assay employing a yeast nitrogen base dextrose agar medium. In carrying out the assay, Compound I was solubilized in 10 percent dimethyl sulfoxide (DMSO) supplemented with one drop of Tween 20. Twofold dilutions were made with sterile distilled water/10 percent DMSO to obtain final drug concentrations in the agar dilution assay plates ranging from 128 to 0.06 µg/ml.
The yeast cultures, maintained in yeast maltose (YM) broth, were transferred to fresh YM medium and incubated overnight at 35°C with shaking (250 rpm). After incubation, each culture was diluted in sterile saline to yield a final concentration of 3x10⁵ to 3x10⁶ colony forming units (CFU)/ml.
Each prepared plate was inoculated using a Denley Multipoint Inoculator (Denley, Sussex, England) which delivers approximately 0.001 milliliter to the agar surface resulting in inoculation of from 3x10² to 3x10³ CFUs. The plates were incubated at 28°C for 48 hours. The minimum inhibitory concentrations (MICs) were recorded as the lowest concentrations of drug showing no growth or less than three CFU/spot.
In a similar assay, Compound I was tested against an expanded panel of 34 different strains of Candida albicans and 13 different strains of Candida parapsilosis.

yeasts = assay: disc diffusion antifungal assay, yeasts; type: cell-based; conditions: disc diffusion against the listed yeasts; 28°C or 37°C, 24 hours
Procedure: as §1, §2
Inocula for yeasts are prepared from overnight broth cultures then diluted into potato dextrose […] to a final concentration of either 40 percent or 70 percent transmission at 660 nm.
as §3, §4
as §5, with “application. The discs bearing the material to be tested are then applied employing sterile conditions to the seeded assay plates and the samples rewet with 25 percent sterile aqueous dimethylsulfoxide (25 µl/disc).” for “application.”

Candida albicans [2] = assay: mice experimentally infected with Candida albicans; type: in vivo
Text: These properties point to a new antifungal drug with great potential in the therapy of human mycotic infections.

red blood cell = assay: titration/hemolysis assay (red blood cell lysis); conditions: highest drug concentration that did not lyse the red blood cells; 25°C, two hours; range tested 0.39 to 400 µg/ml in 5 percent dextrose
Procedure: Concentration of drug in the range of from 0.39 to 400 µg/ml in 5 percent dextrose and a drug free control were employed.
In carrying out the determination, the assay tubes prepared by mixing together 2 milliliters of appropriate drug dilution and 0.5 milliliter of red blood cell suspension were gently shaken to mix the contents and then the tubes were incubated at 25°C for two hours. At the end of this time, the tubes were examined visually for complete or partial red blood cell hemolysis and compared to a drug free control.

Row | Structure (SMILES) | antifungal properties (inhibition zones) (filamentous fungi) | MIC (Candida albicans [1]) | antifungal properties (inhibition zones) (yeasts) | eradication of Candida albicans from kidneys (Candida albicans [2]; kidneys of experimentally infected mice) | survival of mice infected with Candida albicans (Candida albicans [2]; mice infected with Candida albicans) | minimum lytic concentration (MLC) (red blood cell)
1 | CCC(C)CC(C)CCCCCCCCC(=O)N[C@H]1C[C@@H](O)[C@@H](O)NC(=O)[C@@H]2[C@@H](O)[C@@H](C)CN2C(=O)[C@H]([C@H](O)CC(N)=O)NC(=O)[C@H]([C@H](O)[C@@H](O)c2ccc(O)cc2)NC(=O)[C@@H]2C[C@@H](O)CN2C(=O)[C@H]([C@@H](C)O)NC1=O (stereo partly drawn) [Compound I, 1-[(4R, 5R) 4,5-dihydroxy N²-(10,12-dimethyl-1-oxotetradecyl)-L-ornithine]-5-(threo-3-hydroxy-L-glutamine)echinocandin B] (X1-[Orn(4R-OH,5R-OH)]T[Hyp][hTyr(3S-OH,4S-OH)][Gln(3R-OH)][Pro(3S-OH,4S-Me)]; lactam 1-C) | good antifungal properties | > 1 µg/mL | good antifungal properties | eradicate Candida albicans from kidneys | significantly prolong the survival | –
2 | C[C@@H]1[C@H](O)[C@@H](C)/C=C/C=C/C=C/C=C/C=C/C=C/C=C/[C@H](O[C@@H]2O[C@H](C)[C@@H](O)[C@H](N)[C@@H]2O)C[C@@H]2O[C@](O)(C[C@@H](O)C[C@@H](O)[C@H](O)CC[C@@H](O)C[C@@H](O)CC(=O)O[C@H]1C)C[C@H](O)[C@H]2C(=O)O [amphotericin B] | – | – | – | – | – | 12.5 µg/mL

— patent publication EP0311193B1, “Antifungal fermentation product” (priority 1987, dated 1989)
